Data published in patent US7261876B2, “Multivalent constructs for therapeutic and diagnostic applications” (Bracco International BV, priority 2002, dated 2007).
Positions of bridges follow the written chain, without caps; N, C: chain ends. Non-standard residues stand in square brackets, D forms with d. Residues, ends and D or L forms follow the SMILES beside them. Lys(ivDde) = CC(C)CC(NCCCC[C@H](N)C(=O)O)=C1C(=O)CC(C)(C)CC1=O

Key:
[1] = target: T1, KDR-expressing 293H cells (Homo sapiens, UniProt P35968); assay: Bead-binding assay, peptide-conjugated fluorescent beads; format: cell-based; details: Neutravidin-coated beads, 40% FBS
T1 construct: Both PCR products were digested with Not1 and ligated together to create the full-length receptor; V5-His (encoded by the vector); expressed in transfected cells; host or cells: 293H cells (Invitrogen cat. # 11631), transient lipofectamine 2000 transfection
T1 sequence (P35968 20-1356): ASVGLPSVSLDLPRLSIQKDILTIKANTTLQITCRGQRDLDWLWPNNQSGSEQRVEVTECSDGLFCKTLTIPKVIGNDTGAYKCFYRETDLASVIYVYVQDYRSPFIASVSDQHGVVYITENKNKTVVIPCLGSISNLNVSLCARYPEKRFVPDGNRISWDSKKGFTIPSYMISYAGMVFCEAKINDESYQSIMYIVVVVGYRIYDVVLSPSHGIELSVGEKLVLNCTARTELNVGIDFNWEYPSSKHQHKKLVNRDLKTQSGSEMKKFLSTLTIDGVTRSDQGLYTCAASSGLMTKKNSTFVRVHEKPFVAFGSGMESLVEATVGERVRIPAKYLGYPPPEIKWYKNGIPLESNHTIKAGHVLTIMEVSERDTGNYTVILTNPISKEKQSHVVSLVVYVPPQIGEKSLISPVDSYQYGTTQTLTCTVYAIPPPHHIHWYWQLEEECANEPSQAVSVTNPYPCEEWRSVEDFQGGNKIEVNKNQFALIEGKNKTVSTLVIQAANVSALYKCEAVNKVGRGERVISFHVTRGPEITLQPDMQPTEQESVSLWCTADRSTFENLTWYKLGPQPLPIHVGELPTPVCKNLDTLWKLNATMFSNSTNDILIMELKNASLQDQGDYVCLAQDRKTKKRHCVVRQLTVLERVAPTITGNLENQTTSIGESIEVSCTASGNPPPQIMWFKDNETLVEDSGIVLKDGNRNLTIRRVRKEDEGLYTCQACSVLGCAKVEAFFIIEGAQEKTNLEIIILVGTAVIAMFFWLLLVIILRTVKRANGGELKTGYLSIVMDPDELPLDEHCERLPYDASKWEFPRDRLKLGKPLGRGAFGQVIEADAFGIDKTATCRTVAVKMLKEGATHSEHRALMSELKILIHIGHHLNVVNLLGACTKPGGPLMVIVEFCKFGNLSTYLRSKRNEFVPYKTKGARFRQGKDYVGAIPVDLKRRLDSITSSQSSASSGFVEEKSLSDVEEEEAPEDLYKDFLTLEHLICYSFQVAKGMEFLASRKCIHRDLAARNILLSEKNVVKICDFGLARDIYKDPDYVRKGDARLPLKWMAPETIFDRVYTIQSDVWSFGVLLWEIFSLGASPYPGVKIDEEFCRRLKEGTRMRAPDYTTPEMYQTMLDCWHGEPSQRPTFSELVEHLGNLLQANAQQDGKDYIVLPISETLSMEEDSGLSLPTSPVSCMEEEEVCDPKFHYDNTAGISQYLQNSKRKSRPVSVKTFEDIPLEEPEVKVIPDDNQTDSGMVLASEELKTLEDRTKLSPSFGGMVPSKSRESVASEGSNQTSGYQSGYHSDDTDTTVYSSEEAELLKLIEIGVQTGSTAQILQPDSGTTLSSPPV
Description: As a positive control, biotinylated anti-KDR antibody was incubated with the Neutravidin-coated beads as above, except that 0.03 mg of the biotinylated antibody preparation in PBS (Gibco 14190-136) was used instead of peptide solution. Beads can be stored at 4° C. until needed for up to 1 week.
293H cells were transfected using the protocol described in Example 6. Transfection was done in black/clear 96-well plates (Becton Dickinson, cat. # 354640). The cells in one half of the plate (48 wells) were mock-transfected (with no DNA) and those in the other half of the plate were transfected with KDR cDNA. The cells were 80–90% confluent at the time of transfection and completely confluent the next day, at the time of the assay; otherwise the assay was aborted.
From the above bead preparations, 0.12 mL was spun for 10 minutes at 2000 rpm in a microcentrifuge at room temperature. The supernatant was removed and 0.06 mL of MES pH 6.0 was added. Each bead solution was then vortexed and sonicated in a water bath 15 min. To 1.47 mL of DMEM, high glucose (GIBCO 11965-084) with 1×MEM Non-Essential Amino Acids Solution (NEAA) (GIBCO 11140-050) and 40% FBS (Hyclone SH30070.02) 0.03 mL of the sonicated bead preparations was added. 96-well plates seeded with 293H cells which have been mock-transfected in columns 1 to 6, and KDR-transfected in columns 7 to 12 (as described above), were drained and washed once with DMEM, high glucose with 1×NEAA and 40% FBS. To each well was added 0.1 mL of bead solution, six wells per bead preparation. […] After draining, 0.1 mL of PBS was added per well. The plates were then read on a Packard FluoroCount fluorometer at excitation 550 nm/emission 620 nm. Unconjugated Neutravidin beads were used as a negative control while beads conjugated with a biotinylated anti-KDR antibody were used as the positive control for the assay.
To calculate the number of beads bound per well, a standard curve with increasing numbers of the same fluorescent beads was included in each assay plate. The standard curve was used to calculate the number of beads bound per well based on the fluorescence intensity of each well.

[2] = target: T2, KDR expressed by transfected 293H cells (Homo sapiens, UniProt P35968); assay: Competition with 125I-labeled VEGF for binding to KDR-transfected 293H cells
T2 construct: Both PCR products were digested with Not1 and ligated together to create the full-length receptor; V5-His (encoded by the vector); expressed in transfected cells; host or cells: 293H cells (Invitrogen cat. # 11631), transient lipofectamine 2000 transfection
T2 sequence (P35968 20-1356): as above
Description: Once prepared, the solutions were kept on ice until ready to use.
Cells were used 24 h after transfection, and to prepare the cells for the assay, they were washed 3 times with room temperature M199 medium and placed in the refrigerator. […] After incubating at 4° C. for 2 h, the plates were washed 5 times with cold binding buffer, gently blotted dry and checked under a microscope for cell loss. 100 μL of solubilizing solution (2% Triton X-100, 10% Glycerol, 0.1% BSA) was added to each well and the plates were incubated at room temperature for 30 minutes. The solubilizing solution in each well was mixed by pipeting up and down, and transferred to 1.2 mL tubes. Each well was washed twice with 100 μL of solubilizing solution and the washes were added to the corresponding 1.2 mL tube.
After washing the cells, the bound radioactivity was quantitated on a gamma counter.

[3] = target: T3, Soluble KDR receptor (Homo sapiens, UniProt P35968); assay: Surface plasmon resonance (Biacore 3000) of P9/P10 heterodimers; format: binding
T3 construct: Soluble KDR receptor was cross-linked to the dextran surface of a CM5 sensor chip
T3 sequence (P35968 20-764 limits assumed): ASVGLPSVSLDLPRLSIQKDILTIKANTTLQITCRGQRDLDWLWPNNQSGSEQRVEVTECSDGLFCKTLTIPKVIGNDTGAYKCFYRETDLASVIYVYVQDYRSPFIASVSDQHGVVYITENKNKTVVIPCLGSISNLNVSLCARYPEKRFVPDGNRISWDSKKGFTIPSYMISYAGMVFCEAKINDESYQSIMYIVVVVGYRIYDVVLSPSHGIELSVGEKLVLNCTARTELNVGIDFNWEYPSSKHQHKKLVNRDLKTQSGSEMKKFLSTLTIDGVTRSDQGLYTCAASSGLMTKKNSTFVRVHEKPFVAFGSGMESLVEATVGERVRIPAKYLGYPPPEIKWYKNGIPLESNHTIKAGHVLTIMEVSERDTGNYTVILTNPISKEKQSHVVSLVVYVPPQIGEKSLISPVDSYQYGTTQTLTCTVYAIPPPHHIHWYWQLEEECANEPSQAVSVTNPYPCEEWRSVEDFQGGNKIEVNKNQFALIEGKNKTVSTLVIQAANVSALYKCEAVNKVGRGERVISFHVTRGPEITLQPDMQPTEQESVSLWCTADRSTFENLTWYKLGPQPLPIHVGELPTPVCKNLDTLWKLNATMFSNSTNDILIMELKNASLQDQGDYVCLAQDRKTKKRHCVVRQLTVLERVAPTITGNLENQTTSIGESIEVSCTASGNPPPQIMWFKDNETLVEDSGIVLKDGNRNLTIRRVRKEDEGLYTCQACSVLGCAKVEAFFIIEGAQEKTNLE

[4] = target: T4, KDR (Homo sapiens, UniProt P35968); assay: VEGF-induced KDR receptor activation (phosphorylation) assay in HUVECs; format: cell-based; details: for inhibition of KDR activation: 10 μM; for inhibition at 10 µM: HUVEC, read-out: inhibition of VEGF-induced KDR phosphorylation
T4 construct: host or cells: HUVEC
T4 sequence (P35968 20-1356): as the sequence (P35968 20-1356) above
From the text: Human umbilical vein endothelial cells (HUVECs) (Biowhittaker Cat No. CC-2519) were obtained frozen on dry ice and stored in liquid nitrogen until thawing. These cells were thawed, passaged, and maintained as described by the manufacturer in EGM-MV medium (Biowhittaker Cat No. CC-3125). Cells seeded into 100 mm dishes were allowed to become confluent, then cultured overnight in basal EBM medium lacking serum (Biowhittaker Cat No. CC-3121). The next morning, the medium in the dishes was replaced with 10 mL fresh EBM medium at 37° C. containing either no additive (negative control), 5 ng/mL VEGF (Calbiochem Cat No. 676472 or Peprotech Cat No. 100-20) (positive control), or 5 ng/mL VEGF plus the indicated concentration of the KDR-binding peptide (prepared as described above). In some cases, a neutralizing anti-KDR antibody (Cat No. AF357, R&D Systems) was used as a positive control inhibitor of activation. In such cases, the antibody was pre-incubated with the test cells for 30 min at 37° C. prior to the addition of fresh medium containing both VEGF and the antibody. After incubating the dishes 5 min in a 37° C. tissue culture incubator they were washed three times with ice-cold Dulbecco's phosphate buffered saline (D-PBS) containing calcium and magnesium and placed on ice without removing the last 10 mL of D-PBS. The first dish of a set was drained and 0.5 mL of Triton lysis buffer was added (20 mM Tris base pH 8.0, 137 mM NaCl, 10% glycerol, 1% Triton X-100, 2 mM EDTA (ethylenediaminetetraacetic acid), 1 mM PMSF (phenylmethylsulfonylfluoride), 1 mM sodium orthovanadate, 100 mM NaF, 50 mM sodium pyrophosphate, 10 μg/mL leupeptin, 10 μg/mL aprotinin). The cells were quickly scraped into the lysis buffer using a cell scraper (Falcon, Cat No. 353087), dispersed by pipeting up and down briefly, and the resulting lysate was transferred to the second drained dish of the pair. Another 0.5 mL of lysis buffer was used to rinse out the first dish then transferred to the second dish, which was then also scraped and dispersed. The pooled lysate from the two dishes was transferred to a 1.5 mL Eppindorf tube. The above procedure was repeated for each of the controls and test samples (KDR-binding peptides), one at a time. The lysates were stored on ice until all the samples had been processed. At this point samples were either stored at −70° C. or processed to the end of the assay without interruption.
The lysates, either freshly prepared or frozen and thawed, were precleared by adding 20 μL of protein A-sepharose beads (Sigma 3391, preswollen in D-PBS), washed three times with a large excess of D-PBS, reconstituted with 6 mL D-PBS to generate a 50% slurry) and rocked at 4° C. for 30 min. The beads were pelleted by centrifugation for 2 min in a Picofuge (Stratgene, Cat No. 400550) at 2000×g and the supernatants transferred to new 1.5 mL tubes. 20 μg of anti-Flk-1 antibody (Santa Cruz Biotechnology, Cat No. sc-504) was added to each tube, and the tubes were incubated overnight (16–18 h) at 4° C. on a rotator to immunoprecipitate KDR. The next day 40 μL of protein A-sepharose beads were added to the tubes, which were then incubated at 4° C. for 1 h on a rotator. The beads in each tube were subsequently washed three times by centrifuging for 2 min in a Picofuge, discarding the supernatant, and dispersing the beads in 1 mL freshly added TBST buffer (20 mM Tris base pH 7.5, 137 mM NaCl, and 0.1% Tween 20). After centrifuging and removing the liquid from the last wash, 40 μL of Laemmli SDS-PAGE sample buffer (Bio-Rad, Cat No. 161-0737) was added to each tube and the tubes were capped and boiled for 5 min. After cooling, the beads in each tube were pelleted by centrifuging and the supernatants containing the immunoprecipitated KDR were transferred to new tubes and used immediately or frozen and stored at −70° C. for later analysis.
Detection of phosphorylated KDR as well as total KDR in the immunoprecipitates was carried out by immunoblot analysis. […]

Q: “Ac-AGPKWC*EEDWYYC*MITGT-GGGK-(Biotin)-NH2 [P5-B]” was tested. Which “binding of ligand-coated fluorescent beads to KDR-transfected vs mock-transfected cells” value [1] did it give?
A: did not bind to the KDR-transfected cells significantly more than to mock-transfected cells

Q: Which “percentage inhibition of 125I-labeled VEGF binding” value ([2]; 0.3 μM peptide) does the source give for “Ac-AGPTWC*EDDWYYC*WLFGT-GGGK-(Biotin-JJ-)-NH2 [P12-XB]” here?
A: 80.96±3.8%

Q: And the “percentage inhibition of 125I-labeled VEGF binding” value ([2]; 30 μM peptide)?
A: 104.48±2.07%

Q: How did the “kd,1” value [3] turn out when AQEPEGYAYWEVITLYHEEDGDGG [P9] was run?
A: 0.00332 s⁻¹

Q: For `CC[C@H](C)[C@H](NC(=O)[C@H](Cc1c[nH]c2ccccc12)NC(=O)[C@H](Cc1ccc(O)cc1)NC(=O)[C@H](CC(=O)O)NC(=O)[C@H](CC(=O)O)NC(=O)CNC(=O)CNC(=O)[C@H](Cc1ccccc1)NC(=O)[C@H](CCCNC(=N)N)NC(=O)[C@@H]1CCCN1C(=O)[C@H](Cc1ccccc1)NC(=O)[C@H](C)NC(=O)[C@H](CCC(N)=O)NC(=O)[C@H](C)NC(C)=O)C(=O)N[C@@H](CCC(N)=O)C(=O)N[C@@H](CCC(N)=O)C(=O)N[C@@H](Cc1ccc(O)cc1)C(=O)N[C@@H](CC(C)C)C(=O)N[C@@H](CCCNC(=N)N)C(=O)N[C@@H](Cc1ccc(O)cc1)C(=O)N[C@H](C(=O)N[C@@H](CC(=O)O)C(=O)NCC(=O)NCC(=O)N[C@@H](CCCCNC(=O)CCOCCOCCOCCOCCNC(=O)CON=C(C)CCC(=O)NCCOCCOCCOCCOCCC(=O)NCCCC[C@H](NC(=O)CNC(=O)CNC(=O)[C@H](CC(=O)O)NC(=O)CNC(=O)[C@H](CC(=O)O)NC(=O)[C@H](CCC(=O)O)NC(=O)[C@H](CCC(=O)O)NC(=O)[C@H](Cc1c[nH]cn1)NC(=O)[C@H](Cc1ccc(O)cc1)NC(=O)[C@H](CC(C)C)NC(=O)[C@@H](NC(=O)[C@@H](NC(=O)[C@@H](NC(=O)[C@H](CCC(=O)O)NC(=O)[C@H](Cc1c[nH]c2ccccc12)NC(=O)[C@H](Cc1ccc(O)cc1)NC(=O)[C@H](C)NC(=O)[C@H](Cc1ccc(O)cc1)NC(=O)CNC(=O)[C@H](CCC(=O)O)NC(=O)[C@@H]1CCCN1C(=O)[C@H](CCC(=O)O)NC(=O)[C@H](CCC(N)=O)NC(=O)[C@H](C)NC(C)=O)C(C)C)[C@@H](C)CC)[C@@H](C)O)C(N)=O)C(N)=O)[C@@H](C)O` [Tail-to-tail dimer], which “increase in affinity over the individual monomer” value [3] is on record?
A: greater than 60 fold

Q: What about the “kd,1” value [3] of the same molecule?
A: 0.00128 s⁻¹

Q: What about the kon ([3]; pH 7.65, read-out: ka,1) of the same molecule?
A: 115000 M⁻¹ s⁻¹

Q: How did the “binding of ligand-coated fluorescent beads to KDR-transfected vs mock-transfected cells” value [1] turn out when “Ac-GDSRVC*WEDSWGGEVC*FRYDP-GGGK-(Biotin)-NH2 [P6-B]” was run?
A: showed greater binding to KDR-transfected cells

Q: How did the “inhibition of KDR activation” value [4] turn out when AQAFPRFGGDDYWIQQYLRYTDGG [P10] was run?
A: clearly able to partially block the VEGF-induced activation of KDR

Q: What about the “kd,1” value [3] of the same molecule?
A: 0.45 s⁻¹

Q: Which inhibition at 10 µM [4] does the source give for `CC[C@H](C)[C@@H]1NC(=O)CNC(=O)[C@H](CC(=O)O)NC(=O)[C@@H]2CCCN2C(=O)[C@H](Cc2c[nH]cn2)NC(=O)[C@H](Cc2ccc(O)cc2)NC(=O)[C@@H](NC(=O)[C@H](CCC(=O)O)NC(=O)[C@@H](NC(=O)[C@H](Cc2c[nH]c3ccccc23)NC(=O)CNC(=O)[C@H](C)NC(C)=O)[C@@H](C)CC)CSSC[C@@H](C(=O)N[C@@H](Cc2ccc(O)cc2)C(=O)N[C@@H](Cc2c[nH]cn2)C(=O)N[C@@H](Cc2ccccc2)C(=O)NCC(=O)N[C@H](C(=O)NCC(=O)NCC(=O)NCC(=O)N[C@@H](CCCCN)C(N)=O)[C@@H](C)O)NC1=O` [P2-D] (Ac-AGWIECYHPDGICYHFGTGGGK-NH2; disulfide 6-13) here?
A: ≥ 50%

Q: Which “inhibition of KDR activation” value [4] does the source give for `CSCC[C@@H]1NC(=O)[C@H](CC(N)=O)NC(=O)[C@H](CO)NC(=O)[C@H](Cc2c[nH]c3ccccc23)NC(=O)CNC(=O)[C@@H](NC(=O)[C@H](CCC(=O)O)NC(=O)[C@H](Cc2c[nH]c3ccccc23)NC(=O)[C@H](CC(N)=O)NC(=O)[C@H](CC(=O)O)NC(=O)CNC(C)=O)CSSC[C@@H](C(=O)N[C@@H](C)C(=O)N[C@@H](CCCNC(=N)N)C(=O)N2CCC[C@H]2C(=O)N[C@@H](CC(=O)O)C(=O)N2CCC[C@H]2C(=O)NCC(=O)NCC(=O)NCC(=O)N[C@@H](CCCCN)C(N)=O)NC(=O)[C@H](Cc2ccccc2)NC(=O)[C@H](CCC(=O)O)NC(=O)[C@H](CCCCNC(CC(C)C)=C2C(=O)CC(C)(C)CC2=O)NC(=O)[C@H](CCC(N)=O)NC(=O)[C@H](Cc2ccccc2)NC1=O` [P20-E] (Ac-GDNWECGWSNMFQ[Lys(ivDde)]EFCARPDPGGGK-NH2; disulfide 6-17) here?
A: did not produce significant inhibition of KDR activation

Q: Which “competition with 125I-VEGF for binding to KDR-transfected cells” value [2] does the source give for AGDSWCSTEYTYCEMIGT [P4] here?
A: did not compete significantly

Q: Which inhibition at 10 µM [4] does the source give for `CSCC[C@@H]1NC(=O)[C@H]([C@@H](C)O)NC(=O)[C@@H](NC(=O)[C@@H](NC(=O)[C@H](CC(=O)O)NC(=O)[C@@H]2CCCN2C(=O)[C@H](CC(=O)O)NC(=O)CNC(C)=O)[C@@H](C)O)CSSC[C@@H](C(=O)N[C@@H](Cc2ccccc2)C(=O)N2CCC[C@H]2C(=O)N[C@@H](C)C(=O)N[C@@H](CC(=O)O)C(=O)N2CCC[C@H]2C(=O)NCC(=O)NCC(=O)NCC(=O)N[C@@H](CCCCN)C(N)=O)NC(=O)[C@H](Cc2ccc(O)cc2)NC(=O)[C@H](Cc2c[nH]c3ccccc23)NC(=O)[C@H](CCCNC(=N)N)NC(=O)CNC(=O)[C@H](CO)NC(=O)[C@H](CC(=O)O)NC(=O)CNC(=O)[C@H](Cc2c[nH]c3ccccc23)NC1=O` [P8-D] (Ac-GDPDTCTMWGDSGRWYCFPADPGGGK-NH2; disulfide 6-17) here?
A: ≥ 50%
